In patent US20080280837A1, “Biologically Active Compounds with Anti-Angiogenic Properties” (priority 2004, published 2008):

Molecular target: T1, Human SST5 somatostatin receptor (SSTR5) (Homo sapiens, UniProt P35346)
T1 construct: expressed in transfected cells; host or cells: HEK-293 EBNA
Assay: Filter plate assay for SST5 receptor, displacement of [125I]SST-14
Format: binding
Description: Receptor membrane preparations containing the desired cloned receptor (for example cloned human somatostatin receptor subtype 5, SSTR5) and radio-labeled ligand (for example 3-[^125I]iodotyrosyl^11 Somatostatin-14)) were diluted at the concentration required for testing and according to the specific parameters associated with the selected receptor-ligand combination, including receptor Bmax, ligand Kd and any other parameters necessary to optimize the experimental conditions. When tested for competition activity to the reference ligand, “compound 1” was mixed with membrane suspension and the radiolabeled reference ligand (with or without an excess of cold ligand to the receptor for determination of non-specific binding) and incubated at the temperature required by internal standard operating procedures. Following incubation, the binding reaction was stopped by the addition of ice-cold washing buffer and filtered on appropriate filters, which are then counted. Data analysis and curve-fitting was performed with XLfit (IDBS).
10 mM solutions of test compounds in 100% DMSO were prepared. ˜160 μl was used for each dilution (20 μl/well in triplicate).
A 1.25 mM assay stock was prepared by making a 1:8 dilution of the 10 mM solution. (To 30 μL of the 10 mM solution was added 210 μL milli-Q H2O. A 1:5 dilution series in milli-Q H2O was then prepared.
Assays were performed in triplicate at each concentration within the 1:5 dilution series: 250 μM, 50 μM, 10 μM, […], 0.4 μM, 0.08 μM, 0.016 μM, 0.0032 μM, etc. (for SST4 assay) and 125 μM, 10 μM, 2 μM, 1 μM, 0.5 μM, etc (for SST5 assay).
Human SST5 somatostatin receptor was transfected into HEK-293 EBNA cells. Membranes were suspended in assay buffer (50 mM Tris-HCl, 1 mM EGTA, 5 mM MgCl2, 10% sucrose, pH 7.5).
After thawing the frozen receptor preparation rapidly, receptors were diluted with binding buffer, homogenized, and kept on ice. • 1. Use Multiscreen glass fiber filter plates (Millipore, Cat No MAFCNOB10) precoated with o.5% PEI for ˜2 hr at 4° C. Before use add 200 μl/well assay buffer and filter using Multiscreen Separation System. • 2. Incubate 5.5 μg of membranes (40 μl of a 1:40 dilution), buffer and [^125I]SST-14 (4 nM, ˜80 000 cpm, 2000 Ci/mmol) in a total volume of 200 μl for 60 min at 25° C. […] Prepare serial dilutions (1:5) of compounds, as described above and instead of adding SST-14 in well, add 20 μl of compounds (Table 1). • 3. Filter using Multiscreen Separation System with 5×0.2 ml ice-cold Assay buffer. • 4. Remove the plastic underdrain and dry plate in oven for 1 hr at 40° C. • 5. Seal tape to the bottom of the plate. • 6. Add 50 μl/well scintillant (Supermix, Wallac, Cat No 1200-439). • 7. Seal and count in the BJET, program 2.
In primary screening experiments compounds were tested in duplicate for a particular concentration.

T1 sequence (P35346 whole entry): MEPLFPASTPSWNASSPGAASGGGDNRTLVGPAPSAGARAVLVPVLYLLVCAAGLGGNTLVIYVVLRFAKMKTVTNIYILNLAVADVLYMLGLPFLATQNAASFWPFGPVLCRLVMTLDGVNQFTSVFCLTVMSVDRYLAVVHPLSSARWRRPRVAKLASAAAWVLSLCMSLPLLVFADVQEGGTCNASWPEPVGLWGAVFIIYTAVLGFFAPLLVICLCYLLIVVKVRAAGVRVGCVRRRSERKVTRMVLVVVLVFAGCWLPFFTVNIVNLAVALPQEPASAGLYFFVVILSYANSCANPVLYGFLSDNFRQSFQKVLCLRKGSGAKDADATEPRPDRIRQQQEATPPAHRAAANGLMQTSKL

Row | SSTR5 Inhib 0.5 uM % (inhibition of binding of SST-14 to SSTR5) [%] | SSTR5 Inhib 10 uM % (inhibition of binding of SST-14 to SSTR5) [%] | SMILES
1 | 84 | 98 | COC[C@H]1OC(OCc2ccc3ccccc3c2)[C@H](NC(=O)CCCNC(=N)N)[C@H](OCc2ccc(Cl)cc2)[C@@H]1O (some centres unmarked) [Compound 17]
2 | 90 | 98 | COC[C@H]1OC(OCc2ccccc2)[C@H](NC(=O)CCN)[C@H](OCc2ccc3ccccc3c2)[C@@H]1O (some centres unmarked) [Compound 18]
3 | 88 | 98 | COC[C@H]1OC(OCc2ccc(Cl)cc2)[C@H](NC(=O)CCCN)[C@@H](OCc2ccc3ccccc3c2)[C@@H]1O (some centres unmarked) [Compound 19]
4 | 81 | 97 | COC[C@H]1OC(OCc2ccc3ccccc3c2)[C@H](NC(=O)CCN)[C@H](OCc2ccccc2)[C@@H]1O (some centres unmarked) [Compound 21]
5 | 80 | 96 | COC[C@H]1OC(OCc2ccccc2)[C@H](NC(=O)CCN)[C@H](OCc2ccc(Cl)cc2)[C@@H]1O (some centres unmarked) [Compound 22]
6 | 80 | 96 | COC[C@H]1OC(OCc2ccc3ccccc3c2)[C@H](NC(=O)CCCNC(=N)N)[C@@H](OCc2ccc(Cl)cc2)[C@@H]1O (some centres unmarked) [Compound 23]
7 | 67 | 96 | COC[C@H]1OC(OCc2ccc(Cl)cc2)[C@H](NC(=O)CCCN)[C@H](OCc2ccc3ccccc3c2)[C@@H]1O (some centres unmarked) [Compound 24]
8 | 77 | 96 | COC[C@H]1OC(OCc2ccc3ccccc3c2)[C@H](NC(=O)CCCN)[C@@H](OCc2ccc(-c3ccccc3)cc2)[C@@H]1O (some centres unmarked) [Compound 25]
9 | 77 | 96 | COC[C@H]1OC(OCc2ccc3ccccc3c2)[C@H](NC(=O)CCN)[C@H](OCc2ccc(-c3ccccc3)cc2)[C@@H]1O (some centres unmarked) [Compound 26]
10 | 74 | 96 | COC[C@H]1OC(OCc2ccc(Cl)cc2)[C@H](NC(=O)CCCN)[C@H](OCc2ccc(-c3ccccc3)cc2)[C@@H]1O (some centres unmarked) [Compound 27]
11 | 70 | 96 | COC[C@H]1OC(OCCc2ccccc2)[C@H](NC(=O)CCCN)[C@H](OCc2ccc3ccccc3c2)[C@@H]1O (some centres unmarked) [Compound 28]
12 | 77 | 96 | COC[C@H]1OC(OCc2ccc3ccccc3c2)[C@H](NC(=O)CCCN)[C@@H](OCc2ccc(-c3ccccc3)cc2)[C@@H]1O (some centres unmarked) [Compound 29]
13 | 80 | 96 | COC[C@H]1OC(OCc2ccc(Cl)cc2)[C@H](NC(=O)CCCN)[C@@H](OCc2ccc(-c3ccccc3)cc2)[C@@H]1O (some centres unmarked) [Compound 30]
14 | 85 | 96 | COC[C@H]1OC(OCc2ccc(-c3ccccc3)cc2)[C@H](NC(=O)CCCN)[C@@H](OCc2ccc(-c3ccccc3)cc2)[C@@H]1O (some centres unmarked) [Compound 31]
15 | 80 | 95 | COC[C@H]1OC(OCc2ccccc2)[C@H](NC(=O)CCCN)[C@@H](OCc2ccc3ccccc3c2)[C@@H]1O (some centres unmarked) [Compound 32]
16 | 68 | 95 | COC[C@H]1OC(OCc2ccc(Cl)cc2)[C@H](NC(=O)CCCN)[C@@H](OCc2ccc(Cl)cc2)[C@@H]1O (some centres unmarked) [Compound 33]
17 | 61 | 95 | COC[C@H]1OC(OCCc2ccccc2)[C@H](NC(=O)CCN)[C@H](OCc2ccc(Cl)cc2)[C@@H]1O (some centres unmarked) [Compound 34]
18 | 60 | 95 | COC[C@H]1OC(OCc2ccc3ccccc3c2)[C@H](NC(=O)CCNC(=N)N)[C@H](OCc2ccc(Cl)cc2)[C@@H]1O (some centres unmarked) [Compound 35]
19 | 67 | 95 | COC[C@H]1OC(OCc2ccc3ccccc3c2)[C@H](NC(=O)CCNC(=N)N)[C@H](OCc2ccc(-c3ccccc3)cc2)[C@@H]1O (some centres unmarked) [Compound 36]
20 | 81 | 95 | COC[C@H]1OC(OCc2ccccc2)[C@H](NC(=O)CCN)[C@H](OCc2ccc3ccccc3c2)[C@@H]1O (some centres unmarked) [Compound 37]
21 | 79 | 95 | COC[C@H]1OC(OCc2ccc(-c3ccccc3)cc2)[C@H](NC(=O)CCCN)[C@@H](OCc2ccc3ccccc3c2)[C@@H]1O (some centres unmarked) [Compound 38]
22 | 74 | 95 | COC[C@H]1OC(OCc2ccc(Cl)cc2)[C@H](NC(=O)CCN)[C@H](OCc2ccc(Cl)cc2)[C@@H]1O (some centres unmarked) [Compound 39]
23 | 66 | 95 | COC1C(O)C(COCc2ccc(-c3ccccc3)cc2)OC(OCc2ccc(Cl)cc2)C1NC(=O)CCCN (centres unmarked) [Compound 40]
24 | 83 | 94 | COC[C@H]1OC(OCc2ccc(Cl)cc2)[C@H](NC(=O)CCCN)[C@H](OCc2ccc(Cl)cc2)[C@@H]1O (some centres unmarked) [Compound 41]
25 | 77 | 94 | COC[C@H]1OC(OCCc2ccccc2)[C@H](NC(=O)CCCN)[C@@H](OCc2ccc(Cl)cc2)[C@@H]1O (some centres unmarked) [Compound 42]
26 | 68 | 94 | COC[C@H]1OC(OCc2ccc3ccccc3c2)[C@H](NC(=O)CCCN)[C@H](OCc2ccc(-c3ccccc3)cc2)[C@@H]1O (some centres unmarked) [Compound 43]
27 | 78 | 94 | COC[C@H]1OC(OCCc2ccccc2)[C@H](NC(=O)CCCN)[C@@H](OCc2ccc3ccccc3c2)[C@@H]1O (some centres unmarked) [Compound 44]
28 | 71 | 93 | CSC1O[C@H](COCc2ccccc2)[C@@H](O)[C@@H](OCc2ccc(Cl)cc2)[C@H]1NC(=O)CNC(=N)N (some centres unmarked) [Compound 45]
29 | 71 | 93 | COC[C@H]1OC(OCc2ccccc2)[C@H](NC(=O)CCCN)[C@H](OCc2ccc(-c3ccccc3)cc2)[C@@H]1O (some centres unmarked) [Compound 46]
30 | 68 | 93 | COC[C@H]1OC(OCc2ccc3ccccc3c2)[C@H](NC(=O)CCCN)[C@@H](OCc2ccc(Cl)cc2)[C@@H]1O (some centres unmarked) [Compound 47]

Row | SMILES | SSTR5 Inhib 0.5 uM % (inhibition of binding of SST-14 to SSTR5) [%] | SSTR5 Inhib 10 uM % (inhibition of binding of SST-14 to SSTR5) [%]
31 | COC[C@H]1OC(OCc2ccc3ccccc3c2)[C@H](NC(=O)CCCN)[C@H](OCc2ccc(Cl)cc2)[C@@H]1O (some centres unmarked) [Compound 20] | 76 | 97
